Reference: ChEMBL document CHEMBL1201862, “PubChem BioAssay data set” (2004)
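Interpolation was linear, between the two tested concentrations surrounding the appropriate level; five concentrations were tested over 48 hours in 96-well plates. GI50 = concentration required for 50% inhibition of growth.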 Activity calls are given as the source filed them. Rule as the data show it: active = GI50 up to about 1.1 µM and inactive = higher.

What was measured:
Experiment in all cases: inhibition of tumour cell growth, NCI panel, 48 h
MCF7 = test system: MCF7
HOP-92 = test system: HOP-92
NCI/ADR-RES = test system: NCI/ADR-RES
HT-29 = test system: HT-29
NCI-H460 = test system: NCI-H460
OVCAR-3 = test system: OVCAR-3
LOX IMVI = test system: LOX IMVI
Malme-3M = test system: Malme-3M
KM12 = test system: KM12
OVCAR-8 = test system: OVCAR-8
OVCAR-4 = test system: OVCAR-4
MOLT-4 = test system: MOLT-4
DMS-114 = test system: DMS-114
U-251 = test system: U-251
KM-20L2 = test system: KM-20L2
SK-MEL-28 = test system: SK-MEL-28
SF-295 = test system: SF-295
UO-31 = test system: UO-31
SW-620 = test system: SW-620
COLO 205 = test system: COLO 205
A549 = test system: A549
SK-MEL-2 = test system: SK-MEL-2
HL-60 = test system: HL-60
OVCAR-5 = test system: OVCAR-5
NCI-H23 = test system: NCI-H23
HOP-18 = test system: HOP-18
CCRF-CEM = test system: CCRF-CEM
K562 = test system: K562
NCI-H226 = test system: NCI-H226
DLD-1 = test system: DLD-1
SF-268 = test system: SF-268
SF-539 = test system: SF-539
HOP-62 = test system: HOP-62
DMS-273 = test system: DMS-273
HCC 2998 = test system: HCC 2998
SN12C = test system: SN12C
EKVX = test system: EKVX
XF498 = test system: XF498
RPMI-8226 = test system: RPMI-8226
A498 = test system: A498
UACC-257 = test system: UACC-257
SK-OV-3 = test system: SK-OV-3
SNB-19 = test system: SNB-19
NCI-H522 = test system: NCI-H522
SNB-78 = test system: SNB-78
SNB-75 = test system: SNB-75
UACC-62 = test system: UACC-62
HCT-15 = test system: HCT-15
IGROV-1 = test system: IGROV-1
SK-MEL-5 = test system: SK-MEL-5
RXF 393 = test system: RXF 393
HCT-116 = test system: HCT-116
LXFL 529 = test system: LXFL 529
M14 = test system: M14
ACHN = test system: ACHN
M19-MEL = test system: M19-MEL
SR = test system: SR
CAKI-1 = test system: CAKI-1

Question: What does the source list for `O=C(O)CCC(NC(=O)c1ccc(Nc2cnc3cc(C(F)(F)F)ccc3n2)cc1)C(=O)O` (stereo not drawn)?
Answer: GI50 (MCF7): > 100 µM (inactive); GI50 (HOP-92): > 100 µM (inactive); GI50 (NCI/ADR-RES): > 100 µM (inactive); GI50 (HT-29): > 100 µM (inactive); GI50 (NCI-H460): > 100 µM (inactive); GI50 (OVCAR-3): > 100 µM (inactive); GI50 (LOX IMVI): > 100 µM (inactive); GI50 (Malme-3M): > 100 µM (inactive); GI50 (KM12): > 100 µM (inactive); GI50 (OVCAR-8): > 100 µM (inactive); GI50 (OVCAR-4): > 100 µM (inactive); GI50 (MOLT-4): > 100 µM (inactive); GI50 (DMS-114): > 100 µM (inactive); GI50 (U-251): > 100 µM (inactive); GI50 (KM-20L2): > 100 µM (inactive); GI50 (SK-MEL-28): > 100 µM (inactive); GI50 (SF-295): > 100 µM (inactive); GI50 (UO-31): > 100 µM (inactive); GI50 (SW-620): > 100 µM (inactive); GI50 (COLO 205): > 100 µM (inactive); GI50 (A549): > 100 µM (inactive); GI50 (SK-MEL-2): > 100 µM (inactive); GI50 (HL-60): > 100 µM (inactive); GI50 (OVCAR-5): > 100 µM (inactive); GI50 (NCI-H23): > 100 µM (inactive); GI50 (HOP-18): > 100 µM (inactive); GI50 (CCRF-CEM): > 100 µM (inactive); GI50 (K562): > 100 µM (inactive); GI50 (NCI-H226): > 100 µM (inactive); GI50 (DLD-1): > 100 µM (inactive); GI50 (SF-268): > 100 µM (inactive); GI50 (SF-539): > 100 µM (inactive); GI50 (HOP-62): > 100 µM (inactive); GI50 (DMS-273): > 100 µM (inactive); GI50 (HCC 2998): > 100 µM (inactive); GI50 (SN12C): > 100 µM (inactive); GI50 (EKVX): > 100 µM (inactive); GI50 (XF498): > 100 µM (inactive); GI50 (RPMI-8226): > 100 µM (inactive); GI50 (A498): > 100 µM (inactive); GI50 (UACC-257): > 100 µM (inactive); GI50 (SK-OV-3): > 100 µM (inactive); GI50 (SNB-19): > 81.5 µM (inactive); GI50 (NCI-H522): > 100 µM (inactive); GI50 (SNB-78): > 100 µM (inactive); GI50 (SNB-75): > 35.6 µM (inactive); GI50 (UACC-62): > 100 µM (inactive); GI50 (HCT-15): > 100 µM; GI50 (IGROV-1): > 100 µM (inactive); GI50 (SK-MEL-5): > 100 µM (inactive); GI50 (RXF 393): > 100 µM (inactive); GI50 (HCT-116): > 100 µM (inactive)

Question: Which results are given for `CC1SC(c2ccccc2)N(Nc2c3ccccc3nc3ccccc23)C1=O` (stereo not drawn)?
Answer: GI50 (HT-29): > 100 µM (inactive); GI50 (NCI-H460): > 100 µM (inactive); GI50 (OVCAR-3): > 100 µM (inactive); GI50 (LOX IMVI): 89.1 µM (inactive); GI50 (Malme-3M): > 100 µM (inactive); GI50 (KM12): 71.4 µM (inactive); GI50 (OVCAR-8): 74.1 µM (inactive); GI50 (OVCAR-4): > 100 µM (inactive); GI50 (MOLT-4): 28.9 µM (inactive); GI50 (DMS-114): 45.5 µM (inactive); GI50 (U-251): > 100 µM (inactive); GI50 (KM-20L2): > 100 µM (inactive); GI50 (SK-MEL-28): > 100 µM (inactive); GI50 (LXFL 529): 43.3 µM (inactive); GI50 (SF-295): 69 µM (inactive); GI50 (M14): > 100 µM (inactive); GI50 (UO-31): 20.4 µM (inactive); GI50 (SW-620): > 100 µM (inactive); GI50 (COLO 205): > 100 µM (inactive); GI50 (A549): 58.5 µM (inactive); GI50 (SK-MEL-2): > 100 µM (inactive); GI50 (ACHN): > 100 µM (inactive); GI50 (M19-MEL): > 100 µM (inactive); GI50 (OVCAR-5): 78.7 µM (inactive); GI50 (NCI-H23): 50.4 µM (inactive); GI50 (CCRF-CEM): 69.8 µM (inactive); GI50 (K562): 40.6 µM (inactive); GI50 (NCI-H226): 55.3 µM (inactive); GI50 (DLD-1): 59.2 µM (inactive); GI50 (SF-268): > 100 µM (inactive); GI50 (SF-539): > 100 µM (inactive); GI50 (SR): 42.6 µM (inactive); GI50 (HOP-62): > 100 µM (inactive); GI50 (DMS-273): > 100 µM (inactive); GI50 (HCC 2998): > 100 µM (inactive); GI50 (SN12C): > 100 µM (inactive); GI50 (EKVX): 48.2 µM (inactive); GI50 (XF498): > 100 µM (inactive); GI50 (RPMI-8226): 58.7 µM (inactive); GI50 (UACC-257): 83.6 µM (inactive); GI50 (SK-OV-3): 28.4 µM (inactive); GI50 (SNB-19): > 100 µM (inactive); GI50 (NCI-H522): 40 µM (inactive); GI50 (SNB-78): > 100 µM (inactive); GI50 (CAKI-1): 46.9 µM (inactive); GI50 (SNB-75): 34.6 µM (inactive); GI50 (UACC-62): 89.5 µM (inactive); GI50 (HCT-15): 51.8 µM; GI50 (IGROV-1): 27 µM (inactive); GI50 (SK-MEL-5): 38.4 µM (inactive); GI50 (HCT-116): 75.3 µM (inactive)
